pIC50: −log10 of the molar value.
Legend:
[1] = molecular target: human DGAT1 (Homo sapiens (Human), UniProt O75907); assay: biochemical
Procedure: For this assay, a source of DGAT1 was needed. In that regard, a commercially available plasmid for expression of DGAT1 (e.g., pCMV6-recombinant human DGAT1 plasmid) was transfected for 24 hours in Hep3B cells. After transfection of the plasmid, human DGAT-1 expression was analyzed by Western blot or RT-PCR using whole cell extracts. […] Human and mouse DGAT activity were determined as follows.
The plates were sealed, incubated overnight and counted the next morning on a liquid scintillation counter and luminometer.
DGAT1 catalyzes the transfer of the radiolabelled decanoyl group onto the sn-3 position of didecanoyl glycerol. The resultant radiolabeled tridecanoyl glycerol (tricaprin) preferentially binds to the hydrophobic coating on the phospholipid-coated radiometric assay plate. The proximity of the radiolabeled product to the solid scintillant incorporated into the bottom of the radiometric assay plate induced for release from the scintillant, which was measured in the liquid scintillation counter and luminometer.
IC50 values of the compounds were determined from concentration-dependent inhibition curves by using commercially available software.

[2] = molecular target: mouse DGAT1 (Mus musculus (Mouse), UniProt Q9Z2A7); assay: Radiometric DGAT1 assay, mouse liver microsomes; assay type: biochemical; conditions: mouse liver microsomes having mouse DGAT1 activity
Excerpt: A second source of DGAT1 activity was human or mouse liver microsomes.

human DGAT1, sequence (O75907 whole entry): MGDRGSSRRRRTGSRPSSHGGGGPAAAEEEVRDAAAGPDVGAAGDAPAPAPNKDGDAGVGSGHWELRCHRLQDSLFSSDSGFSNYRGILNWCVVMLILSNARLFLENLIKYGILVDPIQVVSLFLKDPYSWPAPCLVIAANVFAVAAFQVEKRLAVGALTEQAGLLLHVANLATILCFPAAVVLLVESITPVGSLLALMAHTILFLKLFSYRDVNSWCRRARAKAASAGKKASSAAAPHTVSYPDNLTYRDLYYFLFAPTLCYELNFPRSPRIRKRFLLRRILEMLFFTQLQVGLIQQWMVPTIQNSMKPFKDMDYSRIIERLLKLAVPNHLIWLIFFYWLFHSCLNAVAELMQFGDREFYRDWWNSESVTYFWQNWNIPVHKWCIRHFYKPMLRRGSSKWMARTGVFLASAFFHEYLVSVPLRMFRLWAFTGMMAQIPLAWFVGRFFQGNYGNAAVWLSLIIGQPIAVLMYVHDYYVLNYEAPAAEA
mouse DGAT1, sequence (Q9Z2A7 whole entry): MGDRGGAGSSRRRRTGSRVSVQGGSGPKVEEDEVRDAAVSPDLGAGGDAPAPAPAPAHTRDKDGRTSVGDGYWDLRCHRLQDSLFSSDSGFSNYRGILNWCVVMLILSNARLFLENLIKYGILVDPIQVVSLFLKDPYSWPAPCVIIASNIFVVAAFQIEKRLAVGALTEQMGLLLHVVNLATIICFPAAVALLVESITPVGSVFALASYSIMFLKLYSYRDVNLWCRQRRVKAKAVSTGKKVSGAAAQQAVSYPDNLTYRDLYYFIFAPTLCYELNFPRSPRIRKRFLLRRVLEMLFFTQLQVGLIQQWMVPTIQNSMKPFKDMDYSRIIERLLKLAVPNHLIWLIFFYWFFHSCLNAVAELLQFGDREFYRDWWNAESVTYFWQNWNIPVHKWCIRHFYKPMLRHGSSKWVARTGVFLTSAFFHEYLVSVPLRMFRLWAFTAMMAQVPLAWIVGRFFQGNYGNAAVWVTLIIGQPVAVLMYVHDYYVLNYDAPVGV

Compound	pIC50 [1]	pIC50 [2]
O=C(O)C[C@H]1CC[C@H](c2ccc(-c3cn4cc(C(=O)NCc5ccc(F)c(OC(F)(F)F)c5)nc4s3)cc2)CC1 [Compound 59, 2-((1r,4r)-4-(4-(6-((4-Fluoro-3-(trifluoromethoxy)benzyl)carbamoyl)imidazo[2,1-b]thiazol-2-yl)phenyl)cyclohexyl)acetic acid]	> 7.60	> 7.60
Cc1cccc(C)c1NC(=O)c1cn2cc(-c3ccc([C@H]4CC[C@H](CC(=O)O)CC4)cc3)ccc2n1 [Compound 38, 2-((1r,4r)-4-(4-(2-((2,6-Dimethylphenyl)carbamoyl)imidazo[1,2-a]pyridin-6-yl)phenyl)cyclohexyl)acetic acid]	> 6.70	> 9.00
Cc1ccccc1CNC(=O)c1cn2cc(-c3ccc([C@H]4CC[C@H](CC(=O)O)CC4)cc3)ccc2n1 [Compound 37, 2-((1r,4r)-4-(4-(2-((2-Methylbenzyl)carbamoyl)imidazo[1,2-a]pyridin-6-yl)phenyl)cyclohexyl)acetic acid]	> 8.00	> 7.30
O=C(O)C[C@H]1CC[C@H](c2ccc(-c3ccc4nc(C(=O)NCc5ccc(F)c(OC(F)(F)F)c5)cn4c3)cc2)CC1 [Compound 10, 2-((1r,4r)-4-(4-(2-((4-Fluoro-3-(trifluoromethoxy)benzyl)carbamoyl)imidazo[1,2-a]pyridin-6-yl)phenyl)cyclohexyl)acetic acid]	> 7.12	> 7.12
O=C(O)C[C@H]1CC[C@H](c2ccc(-c3ccc4nc(C(=O)NCc5ccc(OC(F)(F)F)cc5)cn4c3)cc2)CC1 [Compound 1, 2-((1r,4r)-4-(4-(2-((4-(Trifluoromethoxy)benzyl)carbamoyl)imidazo[1,2-a]pyridin-6-yl)phenyl)cyclohexyl)acetic acid]	> 8.00	> 7.30
O=C(O)C[C@H]1CC[C@H](c2ccc(-c3ccc4nc(C(=O)Nc5ccccc5F)cn4c3)cc2)CC1 [Compound 35, 2-((1r,4r)-4-(4-(2-((2-Fluorophenyl)carbamoyl)imidazo[1,2-a]pyridin-6-yl)phenyl)cyclohexyl)acetic acid]	> 6.70	> 6.26
O=C(O)C[C@H]1CC[C@H](c2ccc(-c3ccc4nc(C(=O)NCc5ccc(C(F)(F)F)c(F)c5)cn4c3)cc2)CC1 [Compound 11, 2-((1r,4r)-4-(4-(2-((3-Fluoro-4-(trifluoromethyl)benzyl)carbamoyl)imidazo[1,2-a]pyridin-6-yl)phenyl)cyclohexyl)acetic acid]	> 7.30	> 7.12
O=C(O)C[C@H]1CC[C@H](c2ccc(-c3ccc4nc(C(=O)Nc5cc(F)c(F)c(F)c5)cn4c3)cc2)CC1 [Compound 40, 2-((1r,4r)-4-(4-(2-((3,4,5-Trifluorophenyl)carbamoyl)imidazo[1,2-a]pyridin-6-yl)phenyl)cyclohexyl)acetic acid]	> 9.00	> 7.30
Cc1ccccc1NC(=O)c1cn2cc(-c3ccc([C@H]4CC[C@H](CC(=O)O)CC4)cc3)ccc2n1 [Compound 32, 2-((1r,4r)-4-(4-(2-(o-Tolylcarbamoyl)imidazo[1,2-a]pyridin-6-yl)phenyl)cyclohexyl)acetic acid]	> 9.00	> 9.00
O=C(O)C[C@H]1CC[C@H](c2ccc(-c3cn4cc(C(=O)NCc5ccc6c(c5)OCO6)nc4s3)cc2)CC1 [Compound 58, 2-((1r,4r)-4-(4-(6-((Benzo[d][1,3]dioxol-5-ylmethyl)carbamoyl)imidazo[2,1-b]thiazol-2-yl)-phenyl)cyclohexyl)acetic acid]	> 7.00	> 6.49
O=C(O)C[C@H]1CC[C@H](c2ccc(-c3ccc4nc(C(=O)NCc5cc(OC(F)(F)F)ccc5F)cn4c3)cc2)CC1 [Compound 9, 2-((1r,4r)-4-(4-(2-((2-Fluoro-5-(trifluoromethoxy)benzyl)carbamoyl)imidazo[1,2-a]pyridin-6-yl)phenyl)cyclohexyl)acetic acid]	> 7.30	> 7.30
O=C(O)C[C@H]1CC[C@H](c2ccc(-c3ccc4nc(C(=O)Nc5cc(F)ccc5F)cn4c3)cc2)CC1 [Compound 39, 2-((1r,4r)-4-(4-(2-((2,5-Difluorophenyl)carbamoyl)imidazo[1,2-a]pyridin-6-yl)phenyl)cyclohexyl)acetic acid]	> 8.00	> 9.00
O=C(O)C[C@H]1CC[C@H](c2ccc(-c3ccc4nc(C(=O)Nc5ccc(OC(F)(F)F)cc5)cn4c3)cc2)CC1 [Compound 3, 2-((1r,4r)-4-(4-(2-((4-(Trifluoromethoxy)phenyl)carbamoyl)imidazo[1,2-a]pyridin-6-yl)-phenyl)cyclohexyl)acetic acid]	> 8.00	> 7.12
COc1ccc(OC(F)(F)F)cc1CNC(=O)c1cn2cc(-c3ccc([C@H]4CC[C@H](CC(=O)O)CC4)cc3)ccc2n1 [Compound 18, 2-((1r,4r)-4-(4-(2-((2-Methoxy-5-(trifluoromethoxy)benzyl)carbamoyl)imidazo[1,2-a]-pyridin-6-yl)phenyl)cyclohexyl)acetic acid]	> 8.00	> 9.00
COc1ccc(CNC(=O)c2cn3cc(-c4ccc([C@H]5CC[C@H](CC(=O)O)CC5)cc4)sc3n2)cc1 [Compound 57, 2-((1r,4r)-4-(4-(6-((4-Methoxybenzyl)carbamoyl)imidazo[2,1-b]thiazol-2-yl)phenyl)cyclo-hexyl)acetic acid]	> 8.00	> 6.82
COc1ccc(CNC(=O)c2cn3cc(-c4ccc([C@H]5CC[C@H](CC(=O)O)CC5)cc4)ccc3n2)cc1 [Compound 12, 2-((1r,4r)-4-(4-(2-((4-Methoxybenzyl)carbamoyl)imidazo[1,2-a]pyridin-6-yl)-phenyl)cyclohexyl)acetic acid]	> 7.60	> 6.82

— patent US9271969B2, “Compounds as inhibitors of diacylglycerol O-acyltransferase type 1 enzyme” (KAINOS MEDICINE, INC., priority 2012, dated 2016)
